Read-outs that look alike come from different tables or passages of the source.

Experimental findings from publication PMC7181277, “Synthesis and Biological Evaluation of New Antitubulin Agents Containing 2-(3′,4′,5′-trimethoxyanilino)-3,6-disubstituted-4,5,6,7-tetrahydrothieno[2,3-c]pyridine Scaffold” (Molecules, 2020) are described below.

The test system of assay [1] is human T-lymphoblastoid leukemia (CEM) cells. Kind of assay: In vitro antiproliferative assay, CEM cells. The format is cell-based. The following applies: CCRF-CEM; human T-lymphocyte CEM, 72 h, cell count; mean ± SE. The method, then:
(§1) Murine leukemia L1210, human T-lymphocyte leukemia CEM, human cervix carcinoma (HeLa), and human chronic myelogenous leukemia K562 cells (3–5 × 10^4 cells) and a serial (5-fold) dilution of the test compounds were added to a 96-well microtiter plate. The cells were incubated for 72 h at 37 °C in a humidified 5% CO2 atmosphere. At the end of the incubation period, the cells were counted in a Coulter Counter (Coulter Electronics Ltd., Harpenden Herts, United Kingdom). […] The IC50 values represent the average (± standard deviation) of three independent experiments. Human peripheral blood mononuclear cells (PBMC) were obtained from healthy donors by centrifugation with Ficoll-Paque Plus (GE Healthcare Bio-Sciences AB, Uppsala).

In assay [2] the test system is K562 cells. Kind of assay: Cell cycle distribution by flow cytometry (Muse Cell Analyzer). The format is cell-based, human. As to conditions: K562, 72 h, three experiments, average ± S.D.; for percentage of G2/M-phase cells at IC50: at IC50 (3a 0.75 μM, 3b 0.70 μM); for percentage of G2/M-phase cells at IC75: at IC75 (3a 1.0 μM, 3b 0.90 μM). The method, then:
The cells were cultured for 72 h in the presence of two different concentrations (IC50 and IC75) for each tested derivative and the obtained results were compared with non-treated K562 cells as control.
Human leukemia K562 cells were treated with compounds 3a or 3b, and analysis of the distribution of the cells through the cell cycle was performed with the Muse Cell Analyzer instrument (Millipore Corporation, Billerica, MA, USA). Assay and cell counting were performed according to the instructions supplied by the manufacturer. Samples were collected after the treatment and washed in PBS. For analysis, 5 × 10^5 cells were resuspended in 200 μL of Muse Cell Cycle Reagent, incubated for 30 min at room temperature, and the cell suspension was transferred to a 1.5 mL microcentrifuge tube prior to analysis. Cells were analyzed by fluorescence-activated cell sorting analysis using a Muse Cell Analyzer.

Assay [3] relates to K562 cells. As to the kind of experiment: Apoptosis assay (Muse Annexin V & Dead Cell Kit). The following applies: K562, 72 h, representative experiment; for cells undergoing apoptosis (total) at IC50: at IC50 (3a 0.75 μM, 3b 0.70 μM); for cells undergoing apoptosis (total) at IC75: at IC75 (3a 1.00 μM, 3b 0.90 μM). Type of assay: cell-based, human. The text has this: This phospholipid flips from the inner to the outer leaflet of the plasma membrane during apoptosis. Positive staining with annexin-V correlates with the loss of plasma membrane polarity, but this staining precedes the complete loss of membrane integrity that accompanies the later stages of cell death, resulting from either apoptosis or necrosis. In contrast, PI can only enter cells after complete loss of membrane integrity. Thus, dual staining for annexin-V and with PI permits discrimination between unaffected cells (annexin-V^−/PI^−), early apoptotic cells (annexin-V^+/PI^−), late apoptotic cells (annexin-V^+/PI^+), and necrotic cells (annexin-V^−/PI^+).
Apoptosis assays on K562 cells were performed with the Muse Cell Analyzer instrument, and assays were performed according to the instructions supplied by the manufacturer. The Muse Annexin V & Dead Cell Kit employs annexin V to detect phosphatidyl serine (PS) on the external membrane of apoptotic cells. A fluorescent DNA intercalator (7-ADD: 7-aminoactinomycin D) is also used as an indicator of cell membrane integrity. From live, healthy cells, as well as early apoptotic cells, 7-ADD is excluded while it is able to bind DNA in cells in late apoptosis and in dead cells. Cells were washed with sterile PBS 1X, suspended, and diluted (1:2) with the Muse Annexin V & Dead Cell reagent. Samples were gently mixed and incubated at room temperature, protected from the light for 15 min. Samples were analyzed using a Muse Cell Analyzer, and data from prepared samples were acquired and recorded utilizing the Annexin V and Dead Cell Software Module (Millipore).

For assay [4], the system named is murine leukemia (L1210) cells. As to the kind of experiment: In vitro antiproliferative assay, L1210 cells. The format is cell-based. As to conditions: Mus musculus; murine leukemia L1210, 72 h, cell count; mean ± SE. The text has this: (§2) In Table 1 we report the in vitro antiproliferative activity of 2-(3′,4′,5′-trimethoxyanilino)-4,5,6,7-tetrahydrothieno[2,3-c]pyridine derivatives 3a–3j and the related 4,5,6,7-tetrahydrobenzo[b]thiophenes 3k–3p against a panel of three cell lines, which were derived from different cancer types, including murine leukemia (L1210), human T-lymphoblastoid leukemia (CEM), and human cervix carcinoma (HeLa) cells.
(§3) Murine leukemia L1210, human T-lymphocyte leukemia CEM, human cervix carcinoma (HeLa), and human chronic myelogenous leukemia K562 cells (3–5 × 10^4 cells) and a serial (5-fold) dilution of the test compounds were added to a 96-well microtiter plate. The cells were incubated for 72 h at 37 °C in a humidified 5% CO2 atmosphere. At the end of the incubation period, the cells were counted in a Coulter Counter (Coulter Electronics Ltd., Harpenden Herts, United Kingdom). The IC50 (50% inhibitory concentration) was defined as the concentration of compound that inhibited cell proliferation by 50%. The IC50 values represent the average (± standard deviation) of three independent experiments. Human peripheral blood mononuclear cells (PBMC) were obtained from healthy donors by centrifugation with Ficoll-Paque Plus (GE Healthcare Bio-Sciences AB, Uppsala).

Assay [5] concerns tubulin (colchicine site). Kind of assay: Inhibition of [3H]colchicine binding to tubulin. On the set-up: species or system Bovine. As to conditions: tubulin 1 μM, colchicine 5 μM, compound 5 μM. The method, then: (§4) Bovine brain tubulin was purified as described previously. To evaluate the effect of the compounds on tubulin assembly in vitro [59], varying concentrations were preincubated with 10 μM tubulin in 0.8 M glutamate buffer at 30 °C and then cooled to 0 °C. After addition of GTP, the mixtures were transferred to 0 °C cuvettes in a recording spectrophotometer and warmed to 30 °C, and the assembly of tubulin was observed turbidimetrically. […] The ability of the test compounds to inhibit colchicine binding to tubulin was measured as described earlier, except that the reaction mixtures contained 1 μM tubulin, 5 μM of [^3H]colchicine, and test compounds 3a or 3b.

The test system of assay [6] is human cervix carcinoma (HeLa) cells. As to the kind of experiment: In vitro antiproliferative assay, HeLa cells. The following applies: for fold more active than 2b against HeLa cells: relative to 2b (IC50: 41 μM); for IC50: human cervix carcinoma HeLa, 72 h, cell count, mean ± SE. Type of assay: cell-based. The protocol:
as §1

For assay [7], the system named is L1210, CEM, and HeLa cells. Kind of assay: Antiproliferative activity, panel of three cancer cell lines. The format is cell-based. As to conditions: for IC50: span over L1210, CEM and HeLa, read-out: IC50 values against the panel of three cancer cell lines.
Excerpt: as §2, §3

Assay [8] relates to human chronic myelogenous leukemia K562 cells. Kind of assay: In vitro antiproliferative assay, K562 cells. Type of assay: cell-based. As to conditions: 72 h; for IC50: Homo sapiens. The protocol:
These values are 1.5-fold lower than those obtained with the 6-methoxycarbonyl derivative 3a against L1210 and HeLa cells, while both compounds were equipotent against CEM cells.
as §3

The subject of assay [9] is human peripheral blood mononuclear cells (PBMC). Kind of assay: Antiproliferative activity in normal human cells (PBMC). Type of assay: cell-based. The following applies: 72 h. The protocol: In order to investigate the selective antiproliferative activities of derivatives 3a and 3b in normal human cells, both these molecules were tested in vitro against human peripheral blood mononuclear cells (PBMC) isolated from healthy donors.
as §3

In the next assay the test system is Bovine brain tubulin. As to the kind of experiment: Inhibition of tubulin polymerization (turbidimetric assembly). The format is biochemical. The following applies: tubulin at 10 μM, 20 min incubation; read-out: Tubulin assembly IC50 ± SD. The protocol:
as §4

Setting [10] is: phytohemagglutin (PHA)-stimulated PBMC, read-out: IC50 PBMC, PHA-stimulated.
Setting [11] is: resting PBMC from healthy donors, read-out: IC50 PBMC, resting.

In the case of `COC(=O)N1CCc2c(sc(Nc3cc(OC)c(OC)c(OC)c3)c2C#N)C1` [Compound 3a, Methyl 3-cyano-2-((3,4,5-trimethoxyphenyl)amino)-4,5-dihydrothieno[2,3-c]pyridine-6(7H)-carboxylate], the IC50 in assay [1] is 2900 ± 2100 nM; in assay [4], 4.7 ± 0.4 µM; in assay [6], 1900 ± 1200 nM; in assay [7], 1900 to 4700 nM; in [8], 750 nM; in [9] (setting [10]) it was over 20 µM. Also, the values for the IC50 (in [9] (setting [11]); with Bovine brain tubulin) were over 20 µM and 3.8 ± 0.05 µM, respectively. The “percentage of G2/M-phase cells at IC50” value with K562 cells [2] is 33.6% ± 1.1%. Also, the “percentage of G2/M-phase cells at IC75” value in the assay with K562 cells [2] was 34.9% ± 1.3%. Moreover, in the assay on K562 cells [3], the “cells undergoing apoptosis (total) at IC50” value is recorded as 29.64%. In the assay on K562 cells [3], the “cells undergoing apoptosis (total) at IC75” value is 46.68%. Also, the “Colchicine binding % ± SD (inhibition of [3H]colchicine binding)” value in [5] is given as 29 ± 1%. In addition, the “fold more active than 2b against HeLa cells” value in assay [6] stood at 40 fold. In addition, the “IC75 K562” value in assay [8] amounted to 1.0 µM.
As for `CCOC(=O)N1CCc2c(sc(Nc3cc(OC)c(OC)c(OC)c3)c2C#N)C1` [Compound 3b, Ethyl 3-cyano-2-((3,4,5-trimethoxyphenyl)amino)-4,5-dihydrothieno[2,3-c]pyridine-6(7H)-carboxylate], the IC50 in assay [1] was 2300 ± 1700 nM; in [4], 2.8 ± 2.3 µM; in [6], 1100 nM; in assay [7], 1100 to 2800 nM; in assay [8], 700 nM; in assay [9] (setting [10]) it was over 20 µM. Besides, the IC50 in assay [9] (setting [11]) is over 20 µM; in the assay with Bovine brain tubulin it was 3.4 ± 0.05 µM. The “percentage of G2/M-phase cells at IC50” value in the assay on K562 cells [2] is listed as 30.3% ± 1.3%. Besides, the “percentage of G2/M-phase cells at IC75” value with K562 cells [2] was 33.5% ± 0.6%. Further, the “cells undergoing apoptosis (total) at IC50” value in the assay on K562 cells [3] amounted to 32.87%. The “cells undergoing apoptosis (total) at IC75” value in the assay on K562 cells [3] was 56.01%. In assay [5], the “Colchicine binding % ± SD (inhibition of [3H]colchicine binding)” value came to 31 ± 1%. For the same compound, in assay [6], the “fold more active than 2b against HeLa cells” value is 20 fold. The “fold lower IC50 than 3a” value in assay [7] (against L1210 and HeLa cells) was found to be 1.5 fold. Further, in [8], the “IC75 K562” value came to 0.90 µM.
